Patent US11865110B2, “Thrombin inhibitors, formulations, and uses thereof” (VERSEON INTERNATIONAL CORPORATION, priority 2018, dated 2024)
Read-outs that look alike come from different tables or passages of the source.

Key:
[1] = Mouse plasma stability; assay type: in vitro ADME, mouse (CD-1); details: CD-1 mouse plasma, 37° C., time points to 160 min; read-out: Mouse Plasma Stability t1/2
Protocol: Alongside a positive control of propantheline bromide, 8 μL of a 1 mM solution of each test compound in DMSO was placed in two wells of a Nunc™ 96-well plate called the “dilution plate.” To one well, 392 μL of HyClone™ water was added and mixed by a pipette. To the other well, 392 μL of mouse or rat plasma stabilized with sodium citrate purchased from Innovative Research was added and mixed by a pipette. The dilution plate was kept covered to reduce solvent evaporation and heated in an incubator at 37° C. At each of the time points enumerated below, the plate was removed from the incubator and 50 μL of the test compound/water or test compound/plasma solutions were transferred to a unique, corresponding well in a “quench plate” (96-well Costar® plate) that contains 150 μL of a quench solution that contains an internal standard (20 uM diclofenac in acetonitrile). The dilution plate was then returned to the incubator. This process was performed at 0, 5, 10, 20, 40, 80, and 160 minutes from the original mixing of the test compounds with the water or plasma in the dilution plate. After the quenching of the 160-minute time point, the quench plate was then centrifuged at 4° C. at 1000×g for 10 minutes. 100 μL of the supernatant of each well were then transferred to corresponding unique wells in a “read plate” (96-well Costar® plate) that were filled with 100 μL of HyClone™ water. The plate was then sealed and analyzed via UHPLC using a 10-μL sample injection through a Phenomenex® Kinetex column pre-equilibrated with the loading buffer (95:5 water:acetonitrile). The parameters were as follows. Mobile Phase A: water, 0.025% formic acid. Mobile Phase B: acetonitrile, 0.025% formic acid. Flow Rate: 0.5 mL/min. […] Half-life (t1/2) times were computed by using a chi-square analysis to fit the peak areas to an exponential decay model for compound concentration as a function of time.

[2] = Mouse pharmacokinetics; assay type: in vivo; details: plasma, male CD-1 mice; for C0: C0 by extrapolation
Protocol: Mouse pharmacokinetic data were generated as follows. Compounds were administered intravenously (IV) as a single dose via tail vein or orally (PO) as a single dose via gastric gavage to male CD-1 mice with weights between 18 and 25 g. Nominal doses were 1 mg/kg and 5 mg/kg for IV and PO administration, respectively. The doses for IV were formulated by dissolving the test compound in a mixture (v/v/v) of 5% N,N-dimethylacetamide (DMA), 15% Kolliphor® (Solutol®) HS15, and 80% sterile water at a dose concentration of 0.25 mg/mL. Doses for PO were formulated by dissolving the test compound in a mixture (v/v) of 90% Kolliphor® (Solutol®) HS15 and 10% pure ethanol at a dose concentration of 0.25 mg/mL.
Animals were housed in standard holding cages with food and water available ad libitum except for those used for PO dosing, which were fasted overnight prior to dosing. Prior to dosing and at each time point following dosing (5 min (IV only), 15 min, 30 min, 60 min, 120 min, 4 h, 8 h, 12 h, and 24 h), two animals were sacrificed and blood samples were taken in triplicate via cardiac puncture. Plasma was obtained by centrifuge and stored frozen until analyzed by LC-MS/MS using an AB Sciex™ QTrap® 5500 coupled to a Shimadzu Nexera X2 fitted with a Luna® Omega 1.6 μm Polar C18 100 Å, 50×2.1 mm, acquired from Phenomenex®. Samples were compared against a standard curve of the test compound at concentrations ranging from 10,000 to 0.3 ng/mL.
Pharmacokinetic parameters are calculated from mean concentration values using a non-compartmental analysis as described below and as apparent to those of ordinary skill in the art. Concentration at time zero (C0) for the IV was established by the extrapolation of log-linear regression using equal weighting on the first three sample time points. Area under the curve (AUC) values were calculated using linear trapezoidal integration.

[3] = system: platelet activation (mouse thrombin); assay: Inhibition of platelet activation in CD-1 mouse plasma; assay type: cell-based; details: CD-1 mouse platelet-rich plasma, Chrono-Lume luminescence, read-out: EC50 towards inhibited platelet activation
Protocol: Assays for inhibition of platelet activation in mouse plasma were performed by the following procedure. Test compounds and positive controls were first diluted in a three-fold series in DMSO to generate a range of concentrations for each from 1500 to 0.08 μM. 2 μL of each sample solution was then placed in corresponding wells of a 96-well plate (the “assay plate”) containing 88 μL of a platelet-rich plasma (PRP) mix described below. 10 μL of a 10 nM solution of mouse thrombin in assay buffer (described below) was then added to each well of the assay plate. The plate was then shaken on a Lab-Line Instruments Inc. titer plate shaker for 2 minutes at 300 RPM. 10 uL of Chrono-Lume® solution was then added to each well. The plate was again shaken for 3 minutes at 300 RPM. Luminescence data were recorded from a plate reader. Each sample was measured in duplicate and against blanks with and without mouse thrombin to record background and maximum signal measurements. The IC50 data were automatically calculated from the measured luminescence counts by means appreciated by one of skill in the art.
The various solutions involved in this procedure are described as follows. Assay buffer was made by combining 7.5 mL of 5 M NaCl with 1.19 g of HEPES powder, 0.5 mL of 1 M MgCl2, 1.5 mL of 1 M KCl and 235 mL of water in a 500 mL flask. The solution's pH was adjusted to 7.4 using 10 N NaOH, and then brought up to a final volume of 250 mL using water. A 20 mM solution of H-Gly-Pro-Arg-Pro-OH (GPRP) in this assay buffer was made from commercially obtained powder. The PRP Mix was made by first centrifuging down 600 μL of whole CD-1 mouse blood in 1.8 mL sodium citrate vacutainers at 100×g for 10 minutes at room temperature in an Eppendorf 5810 R centrifuge. The plasma layer was then extracted along with as much as possible of the buffy coat into storage vials. Extractions from multiple animals were often pooled together. To make the final mix, 2.3 mL of these plasma extractions was combined with 7.2 mL of the above assay buffer and 0.5 mL of the 20 mM GPRP solution. […]

[4] = IV single dose 1 mg/kg, read-out: IV AUC
[5] = PO single dose 5 mg/kg, read-out: PO AUC

Structure (SMILES)	half-life at 20 µM [1] [h]	C0 ([2]; IV single dose 1 mg/kg) [µg/mL]	AUC [2, 4] [µg·h/mL]	Cmax ([2]; PO single dose 5 mg/kg) [µg/mL]	AUC [2, 5] [µg·h/mL]	EC50 [3] [µM]
CC(C)(C)C(=O)n1nc(-c2cccn(CCC(N)=O)c2=O)cc1NCc1ccc(Cl)s1 [Compound 8, 3-[3-(5-{[(5-chlorothiophen-2-yl)methyl]amino}-1-(2,2-dimethylpropanoyl)-1H-pyrazol-3-yl)-2-oxo-1,2-dihydropyridin-1-yl]propanamide]	2.67	1.7	0.53			
O=C(O)Cn1cccc(-c2cc(NCc3ccc(Cl)s3)[nH]n2)c1=O [Compound 3, 2-[3-(5-{[(5-chlorothiophen-2-yl)methyl]amino}-1H-pyrazol-3-yl)-2-oxo-1,2-dihydropyridin-1-yl]acetic acid]	≥ 5	7.2	2.2			
CCC(C)(C)C(=O)n1nc(-c2cccn(CCC(=O)O)c2=O)cc1NCc1ccc(Cl)s1 [Compound 11, 3-[3-(5-{[(5-chlorothiophen-2-yl)methyl]amino}-1-(2,2-dimethylbutanoyl)-1H-pyrazol-3-yl)-2-oxo-1,2-dihydropyridin-1-yl]propanoic acid]	≥ 5	7.4	3.9			
O=C(O)CCn1cccc(-c2cc(NCc3ccc(Cl)s3)n(C(=O)c3ccoc3)n2)c1=O [Compound 12, 3-[3-(5-{[(5-chlorothiophen-2-yl)methyl]amino}-1-(furan-3-carbonyl)-1H-pyrazol-3-yl)-2-oxo-1,2-dihydropyridin-1-yl]propanoic acid]	3.67	4.2	1			
CC(C)(C)C(=O)n1nc(-c2cccn(CCC(=O)O)c2=O)cc1NCc1ccc(Cl)s1 [Compound 1, 3-[3-(5-{[(5-chlorothiophen-2-yl)methyl]amino}-1-(2,2-dimethylpropanoyl)-1H-pyrazol-3-yl)-2-oxo-1,2-dihydropyridin-1-yl]propanoic acid]	≥ 3	6.8	8.2	3.6	31	15
CC(C)(C)C(=O)n1nc(-c2cccn(CCCC(=O)O)c2=O)cc1NCc1ccc(Cl)s1 [Compound 5, 4-[3-(5-{[(5-chlorothiophen-2-yl)methyl]amino}-1-(2,2-dimethylpropanoyl)-1H-pyrazol-3-yl)-2-oxo-1,2-dihydropyridin-1-yl]butanoic acid]	3.83					
O=C(O)CCn1cccc(-c2cc(NCc3ccc(Cl)s3)[nH]n2)c1=O [Compound 2, 3-[3-(5-{[(5-chlorothiophen-2-yl)methyl]amino}-1H-pyrazol-3-yl)-2-oxo-1,2-dihydropyridin-1-yl]propanoic acid]	≥ 5	6.3	0.85	0.7	1.3	
CC(C)(C)C(=O)n1nc(-c2cccn(CC(=O)O)c2=O)cc1NCc1ccc(Cl)s1 [Compound 4, 2-[3-(5-{[(5-chlorothiophen-2-yl)methyl]amino}-1-(2,2-dimethylpropanoyl)-1H-pyrazol-3-yl)-2-oxo-1,2-dihydropyridin-1-yl]acetic acid]	≥ 5	9.5	6.2	1.5	15	15
CC(C)(N)Cn1cccc(-c2cc(NCc3ccc(Cl)s3)n(C(=O)c3ccoc3)n2)c1=O [Compound 9, 1-(2-amino-2-methylpropyl)-3-(5-{[(5-chlorothiophen-2-yl)methyl]amino}-1-(furan-3-carbonyl)-1H-pyrazol-3-yl)-1,2-dihydropyridin-2-one]	2.67					0.032
